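Five concentrations, 48 hours, 96-well plates. At the GI50, growth is halved.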 Activity calls are given as the source filed them. No stated cut-off is given here; in the data, active = GI50 up to about 1.1 µM and inactive = higher.
How the values were obtained:
Test in all cases: NCI tumour cell line growth inhibition, 48 h
NCI-H460 = test system: NCI-H460
HCT-116 = test system: HCT-116
KM12 = test system: KM12
SF-268 = test system: SF-268
MDA-N = test system: MDA-N
HOP-62 = test system: HOP-62
MCF7 = test system: MCF7
NCI/ADR-RES = test system: NCI/ADR-RES
Hs-578T = test system: Hs-578T
K562 = test system: K562
RXF 393 = test system: RXF 393
M14 = test system: M14
OVCAR-8 = test system: OVCAR-8
A549 = test system: A549
SW-620 = test system: SW-620
UACC-62 = test system: UACC-62
A498 = test system: A498
HCT-15 = test system: HCT-15
SK-MEL-2 = test system: SK-MEL-2

Row | SMILES | GI50 (NCI-H460) | GI50 (HCT-116) | GI50 (KM12) | GI50 (SF-268) | GI50 (MDA-N) | GI50 (HOP-62) | GI50 (MCF7) | GI50 (NCI/ADR-RES) | GI50 (Hs-578T) | GI50 (K562) | GI50 (RXF 393) | GI50 (M14) | GI50 (OVCAR-8) | GI50 (A549) | GI50 (SW-620) | GI50 (UACC-62) | GI50 (A498) | GI50 (HCT-15) [µM] | GI50 (SK-MEL-2)
1 | CCCCS(=O)(=O)CCC(N)C(=O)O (stereo not given) | > 100 µM (inactive) | > 100 µM (inactive) | > 100 µM (inactive) | > 100 µM (inactive) | > 100 µM (inactive) | > 100 µM (inactive) | > 100 µM (inactive) | > 100 µM (inactive) | > 100 µM (inactive) | > 100 µM (inactive) | 36.1 µM (inactive) | > 100 µM (inactive) | > 100 µM (inactive) | > 100 µM (inactive) | > 100 µM (inactive) | > 100 µM (inactive) | > 100 µM (inactive) | > 100 | > 100 µM (inactive)
2 | Cc1nn(-c2cc(Cl)ccc2[N+](=O)[O-])c(C)c1Cl | 70.5 µM (inactive) | 53.8 µM (inactive) | > 100 µM (inactive) | > 100 µM (inactive) | > 100 µM (inactive) | > 100 µM (inactive) | > 100 µM (inactive) | 55.8 µM (inactive) | > 100 µM (inactive) | 20.3 µM (inactive) | 2.72 µM (inactive) | > 100 µM (inactive) | > 100 µM (inactive) | 71.1 µM (inactive) | > 100 µM (inactive) | > 100 µM (inactive) | > 100 µM (inactive) | 40.6 | > 100 µM (inactive)
3 | CC1CNC(c2ccc3c(c2)Cc2cc(C4=NC(C)CN4)ccc2-3)=N1 (stereo not given) | 26.6 µM (inactive) | 31.3 µM (inactive) | 20.3 µM (inactive) | 26.1 µM (inactive) | 34.8 µM (inactive) | 41 µM (inactive) | 17.7 µM (inactive) | > 100 µM (inactive) | 38.1 µM (inactive) | 34.4 µM (inactive) | > 100 µM (inactive) | 40.2 µM (inactive) | 37.2 µM (inactive) | > 100 µM (inactive) | 56.1 µM (inactive) | 28.6 µM (inactive) | > 100 µM (inactive) | > 100 | 23.2 µM (inactive)
4 | Cc1ccc(S(=O)(=O)N/N=C2\CC3C4CCC3C2C4)cc1 (stereo not given) | > 100 µM (inactive) | > 100 µM (inactive) | > 100 µM (inactive) | > 100 µM (inactive) | > 100 µM (inactive) | > 100 µM (inactive) | > 100 µM (inactive) | > 100 µM (inactive) | > 100 µM (inactive) | > 100 µM (inactive) | > 100 µM (inactive) | > 100 µM (inactive) | > 100 µM (inactive) | > 100 µM (inactive) | > 100 µM (inactive) | > 100 µM (inactive) | > 100 µM (inactive) | > 100 | > 100 µM (inactive)
5 | COc1ccc(N2C(=O)/C(=C\c3cc(OC)c(OC)c(OC)c3)SC2c2ccccc2)cc1 (stereo not given) | 67 µM (inactive) | 71.9 µM (inactive) | 51.6 µM (inactive) | > 100 µM (inactive) | 25.4 µM (inactive) | > 100 µM (inactive) | 44.2 µM (inactive) | 34.8 µM (inactive) | 50.9 µM (inactive) | 38.3 µM (inactive) | 42.1 µM (inactive) | 55.7 µM (inactive) | 95.9 µM (inactive) | > 100 µM (inactive) | > 100 µM (inactive) | 58.9 µM (inactive) | > 100 µM (inactive) | 58.2 | > 100 µM (inactive)
6 | CC1=CN(c2ccccc2)S2=C1c1sc3c(c1N2c1ccc(Br)cc1)CCCC3 (stereo not given) | > 100 µM (inactive) | > 100 µM (inactive) | > 100 µM (inactive) | > 100 µM (inactive) | > 100 µM (inactive) | > 100 µM (inactive) | > 100 µM (inactive) | > 100 µM (inactive) | > 100 µM (inactive) | > 100 µM (inactive) | > 100 µM (inactive) | > 100 µM (inactive) | > 100 µM (inactive) | > 100 µM (inactive) | > 100 µM (inactive) | > 100 µM (inactive) | > 100 µM (inactive) | > 100 | > 100 µM (inactive)
7 | COc1cc2c3c4c1OCc1c5c(cc(c1-4)CC3[N+](C)(C)CC2)OCO5 (stereo not given) | > 100 µM (inactive) | > 100 µM (inactive) | > 100 µM (inactive) | 2.79 µM (inactive) | > 100 µM (inactive) | 31.1 µM (inactive) | > 100 µM (inactive) | > 80.5 µM (inactive) | 4.18 µM (inactive) | > 86.9 µM (inactive) | > 100 µM (inactive) | > 100 µM (inactive) | > 72.9 µM (inactive) | > 100 µM (inactive) | > 100 µM (inactive) | > 100 µM (inactive) | > 100 µM (inactive) | > 100 | > 100 µM (inactive)
8 | O=C(NNC(=S)NC1CCCCC1)C12CC3CC(CC(C3)C1)C2 | > 100 µM (inactive) | > 100 µM (inactive) | > 100 µM (inactive) | > 100 µM (inactive) | > 100 µM (inactive) | > 100 µM (inactive) | > 100 µM (inactive) | > 100 µM (inactive) | > 100 µM (inactive) | > 100 µM (inactive) | > 100 µM (inactive) | > 100 µM (inactive) | > 100 µM (inactive) | > 100 µM (inactive) | > 100 µM (inactive) | > 100 µM (inactive) | > 100 µM (inactive) | > 100 | > 100 µM (inactive)
9 | CC(C)/C(Cl)=N\OC(=O)Nc1ccc(F)cc1 | 18.1 µM (inactive) | 6.61 µM (inactive) | 16.6 µM (inactive) | 24.6 µM (inactive) | 8.26 µM (inactive) | 19.2 µM (inactive) | 4.62 µM (inactive) | 6.9 µM (inactive) | 24.7 µM (inactive) | 1.5 µM (inactive) | 16.1 µM (inactive) | 4.06 µM (inactive) | 12.8 µM (inactive) | 17.4 µM (inactive) | 1.69 µM (inactive) | 16 µM (inactive) | 14.2 µM (inactive) | 3.48 | 17.7 µM (inactive)
10 | CN(CCCn1ccnc1[N+](=O)[O-])CCCn1ccnc1[N+](=O)[O-] | > 100 µM (inactive) | > 100 µM (inactive) | > 100 µM (inactive) | > 100 µM (inactive) | > 100 µM (inactive) | > 100 µM (inactive) | > 100 µM (inactive) | > 100 µM (inactive) | > 100 µM (inactive) | > 100 µM (inactive) | > 100 µM (inactive) | > 100 µM (inactive) | > 100 µM (inactive) | > 100 µM (inactive) | > 100 µM (inactive) | > 100 µM (inactive) | > 100 µM (inactive) | > 100 | > 100 µM (inactive)
11 | CC(=O)Oc1ccc2c(c1)c1c(=O)oc(C)nc1n2Cc1ccccc1 | > 65.2 µM (inactive) | 40.5 µM (inactive) | 23.6 µM (inactive) | 17.6 µM (inactive) | 27.5 µM (inactive) | 32.7 µM (inactive) | 47.8 µM (inactive) | 31.3 µM (inactive) | > 73.6 µM (inactive) | 50.8 µM (inactive) | 14.8 µM (inactive) | 40.3 µM (inactive) | 37.2 µM (inactive) | 67.5 µM (inactive) | 57.9 µM (inactive) | 16.3 µM (inactive) | 23.4 µM (inactive) | 26.7 | 19.2 µM (inactive)
12 | C=C1C(=O)O[C@H]2[C@@H]3O[C@@](C)(CC/C=C(\C)CCC[C@@H]2C)[C@H](O)C[C@@H]13 | 2.99 µM (inactive) | 3.66 µM (inactive) | 10.8 µM (inactive) | 16.8 µM (inactive) | 2.36 µM (inactive) | 10.5 µM (inactive) | 2.08 µM (inactive) | 2.04 µM (inactive) | 3.29 µM (inactive) | 1.25 µM (inactive) | 3.94 µM (inactive) | 1.95 µM (inactive) | 3.15 µM (inactive) | 6.79 µM (inactive) | 7.96 µM (inactive) | 3.73 µM (inactive) | 25.1 µM (inactive) | 2.56 | 11.8 µM (inactive)
13 | CCOC(=O)c1ccc(NC(=O)O/N=C(/Cl)CC)cc1 | 19.5 µM (inactive) | 8.99 µM (inactive) | 18.4 µM (inactive) | 19.2 µM (inactive) | 16.8 µM (inactive) | 20.4 µM (inactive) | 15 µM (inactive) | 14 µM (inactive) | 22.8 µM (inactive) | 1.94 µM (inactive) | 16.9 µM (inactive) | 2.14 µM (inactive) | 14.9 µM (inactive) | 24.8 µM (inactive) | 1.87 µM (inactive) | 21 µM (inactive) | 15.7 µM (inactive) | 13.5 | 16.4 µM (inactive)
14 | C[N+]1(CCN[N+]2(C)CCCCC2)CCc2ccccc2C1 (stereo not given) | > 100 µM (inactive) | > 100 µM (inactive) | > 100 µM (inactive) | > 100 µM (inactive) | > 100 µM (inactive) | > 100 µM (inactive) | > 100 µM (inactive) | > 100 µM (inactive) | > 100 µM (inactive) | > 100 µM (inactive) | > 100 µM (inactive) | > 100 µM (inactive) | > 100 µM (inactive) | > 100 µM (inactive) | > 100 µM (inactive) | > 100 µM (inactive) | > 100 µM (inactive) | > 100 | > 100 µM (inactive)
15 | C[n+]1ccccc1/C1=c2\cc/c([nH]2)=C(\c2cccc[n+]2C)C2=N/C(=C(/c3cccc[n+]3C)C3C=CC(N3)/C(c3cccc[n+]3C)=C3/C=CC1=N3)C=C2 | 40.9 µM (inactive) | 46.3 µM (inactive) | 62.4 µM (inactive) | > 100 µM (inactive) | > 100 µM (inactive) | > 100 µM (inactive) | > 100 µM (inactive) | > 100 µM (inactive) | > 100 µM (inactive) | 26.7 µM (inactive) | > 100 µM (inactive) | > 100 µM (inactive) | > 100 µM (inactive) | > 100 µM (inactive) | 73.3 µM (inactive) | > 100 µM (inactive) | > 100 µM (inactive) | > 100 | > 100 µM (inactive)

From ChEMBL document CHEMBL1201862, “PubChem BioAssay data set” (2004)
